ChEMBL document CHEMBL1145016, “Synthesis and antitumor activity of conjugates of muramyldipeptide or normuramyldipeptide with hydroxyacridine/acridone derivatives” (J Med Chem, 2003)
Activity calls are given as the source filed them.

Key:
Format in all cases: functional, cell-based
Details in all cases: Homo sapiens
[1] = system: NCI-H460; assay: Tested for cytotoxicity of compound against NCI-H460 (lung)cell line; IA means inactive.
[2] = system: SF-268; assay: Tested for cytotoxicity of compound against SF-268 (CNS) cell line; IA means inactive.
[3] = system: MCF7; assay: Tested for cytotoxicity of compound against MCF-7 (breast) cell line; IA means inactive.

Measured: IA

CC(=O)N[C@@H]1[C@H](OCc2ccccc2)OC(CO)C(O)[C@H]1OCC(=O)N[C@H](C)C(=O)N[C@H](CCC(=O)OCCNC(=O)c1cccc2cc3ccccc3nc12)C(N)=O (stereo not given in full)
inactive: all assays above

CC(=O)N[C@@H]1[C@H](OCc2ccccc2)OC(CO)C(O)[C@H]1OC(C)C(=O)N[C@H](C)C(=O)N[C@H](CCC(=O)OCCCNC(=O)c1cccc2cc3ccccc3nc12)C(N)=O (stereo not given in full)
inactive: all assays above

CC(=O)N[C@@H]1[C@H](OCc2ccccc2)OC(CO)C(O)[C@H]1OC(C)C(=O)N[C@H](C)C(=O)N[C@H](CCC(=O)OCCCCNC(=O)c1cccc2cc3ccccc3nc12)C(N)=O (stereo not given in full)
inactive: all assays above

CC(=O)N[C@@H]1[C@H](OCc2ccccc2)OC(CO)C(O)[C@H]1OC(C)C(=O)N[C@H](C)C(=O)N[C@H](CCC(=O)OCCNC(=O)c1cccc2cc3ccccc3nc12)C(N)=O (stereo not given in full)
inactive: all assays above

CC(=O)N[C@@H]1[C@H](OCc2ccccc2)OC(CO)C(O)[C@H]1OC(C)C(=O)N[C@@H](C(=O)N[C@H](CCC(=O)OCCNC(=O)c1cccc2c(=O)c3ccccc3[nH]c12)C(N)=O)C(C)C (stereo not given in full)
inactive: all assays above
